Results as given in patent US7265130B2, “NPY Y5 antagonist” (Shionogi & Co., Ltd., priority 1999, dated 2007).

Key:
NPY Y1 receptor = target: T1, NPY Y1 receptor (Homo sapiens, UniProt P25929); assay: Affinity for NPY Y1 receptor (membranes from SK-N-MC cells); conditions: membranes from Y1-expression cells (human neuroblastoma, SK-N-MC); read-out: Binding IC50 for NPY Y1 receptor
T1 construct: membranes prepared from Y1-expression cells (human neuroblastoma, SK-N-MC); endogenous in cells; host or cells: SK-N-MC human neuroblastoma cells (membranes)
T1 sequence (P25929 1-384): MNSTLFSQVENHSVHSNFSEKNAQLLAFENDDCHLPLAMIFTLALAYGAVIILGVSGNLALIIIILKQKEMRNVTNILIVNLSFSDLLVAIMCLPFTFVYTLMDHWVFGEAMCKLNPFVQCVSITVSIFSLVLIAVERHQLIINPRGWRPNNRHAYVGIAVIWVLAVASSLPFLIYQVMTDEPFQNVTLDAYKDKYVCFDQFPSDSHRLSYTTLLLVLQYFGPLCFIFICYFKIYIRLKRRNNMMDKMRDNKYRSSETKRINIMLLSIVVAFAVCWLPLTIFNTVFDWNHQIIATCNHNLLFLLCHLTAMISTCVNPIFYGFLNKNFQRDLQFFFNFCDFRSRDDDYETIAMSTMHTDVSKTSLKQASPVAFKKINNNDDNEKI
Description: (§1) The membranes prepared from the above CHO cells expressing NPY Y5 receptor, the compound of the present invention and 30,000 cpm [^125I] peptide YY (60 pM of final concentration: Amersham) were incubated in the assay buffer (20 mM HEPES-Hanks buffer containing 0.1% bovine serum albumin, pH 7.4) at 25° C. for 2 hours, and then the mixture was filtered with a glassfilter GF/C treated with polyethyleneimine. After the glassfilter was washed with 50 mM Tris-HCl buffer (pH 7.4), the radioactivity on the filter was measured with a gamma counter. The non-specific binding was detected in the presence of 200 nM of peptide YY. The 50% inhibitory concentration of the test compound against the specific peptide YY binding (IC50 value) was calculated (Inui, A. et al. Endocrinology 131, 2090-2096 (1992)).
(§2) Using the membranes prepared from Y1-expression cells (human neuroblastoma, SK-N-MC) and the membranes prepared from Y2-expression cells (human neuroblastoma, SMS-KAN), the experiment was carried out in a similar way as Experiment 1 to determine the affinity for NPY Y1 receptor and NPY Y2 receptor.

NPY Y2 receptor = target: T2, NPY Y2 receptor (Homo sapiens, UniProt P49146); assay: Affinity for NPY Y2 receptor (membranes from SMS-KAN cells); conditions: membranes from Y2-expression cells (human neuroblastoma, SMS-KAN); read-out: Binding IC50 for NPY Y2 receptor
T2 construct: membranes prepared from Y2-expression cells (human neuroblastoma, SMS-KAN); endogenous in cells; host or cells: SMS-KAN human neuroblastoma cells (membranes)
T2 sequence (P49146 1-381): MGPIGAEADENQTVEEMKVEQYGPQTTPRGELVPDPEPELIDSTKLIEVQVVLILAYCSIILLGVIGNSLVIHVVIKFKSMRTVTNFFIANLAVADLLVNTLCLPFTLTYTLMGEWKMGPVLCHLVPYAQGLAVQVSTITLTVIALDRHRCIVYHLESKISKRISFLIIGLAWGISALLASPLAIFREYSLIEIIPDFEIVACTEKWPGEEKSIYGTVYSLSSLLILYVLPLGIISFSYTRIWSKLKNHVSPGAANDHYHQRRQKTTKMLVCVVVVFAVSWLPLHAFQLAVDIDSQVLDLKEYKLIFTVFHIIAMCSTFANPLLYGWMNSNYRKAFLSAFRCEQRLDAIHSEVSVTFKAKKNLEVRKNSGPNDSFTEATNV
Description: as §1, §2

human NPY Y5 receptor [1] = target: T3, human NPY Y5 receptor (Homo sapiens, UniProt Q15761); assay: Affinity for NPY Y5 receptor ([125I] peptide YY binding, CHO cell membranes); conditions: inhibition of specific [125I] peptide YY binding, membranes of CHO cells expressing NPY Y5 receptor
T3 construct: expressed in transfected cells
T3 sequence (Q15761 1-445): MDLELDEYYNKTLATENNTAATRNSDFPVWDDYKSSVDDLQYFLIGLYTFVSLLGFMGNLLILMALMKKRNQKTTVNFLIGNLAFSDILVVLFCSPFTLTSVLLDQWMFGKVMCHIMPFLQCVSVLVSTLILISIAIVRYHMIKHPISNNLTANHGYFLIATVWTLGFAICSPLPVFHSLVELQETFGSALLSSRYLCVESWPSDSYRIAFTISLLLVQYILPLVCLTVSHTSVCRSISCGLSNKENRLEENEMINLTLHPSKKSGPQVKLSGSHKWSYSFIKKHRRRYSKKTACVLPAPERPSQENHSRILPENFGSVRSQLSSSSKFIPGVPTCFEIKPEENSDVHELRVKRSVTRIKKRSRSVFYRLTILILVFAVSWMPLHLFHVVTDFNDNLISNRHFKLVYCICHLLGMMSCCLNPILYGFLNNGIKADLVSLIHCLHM
Outline: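 IC50 is inhibition of specific [125I] peptide YY binding (60 pM final; non-specific defined by 200 nM peptide YY), read by gamma counting after filtration. Binding used stably transfected CHO-cell membranes with compound, 2 hours at 25° C, pH 7.4 HEPES-Hanks/0.1% BSA.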

human NPY Y5 receptor [2] = target: T3, human NPY Y5 receptor; assay: cAMP production inhibitory activity in CHO cells; format: cell-based; conditions: against 50 nM NPY inhibition of forskolin stimulated cAMP, CHO cells expressing human NPY Y5 receptor
Outline: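 Supernatant cAMP quantified by EIA after HCl stop, following 30 min stimulation with 10 μM forskolin and 50 nM NPY. Compound was added 5 min before stimulation to human NPY Y5-expressing CHO cells pretreated 20 min at 37 °C with 2.5 mM isobutylmethylxanthine.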

| SMILES | IC50 (NPY Y1 receptor) | IC50 (NPY Y2 receptor) | IC50 (human NPY Y5 receptor [1]) | IC50 (human NPY Y5 receptor [2]) |
| --- | --- | --- | --- | --- |
| CCCCc1ccc(NC(=O)CCCNS(=O)(=O)C(C)(C)C)cc1 [Compound I-27] | ≥ 100 µM | ≥ 100 µM | – | – |
| CCCCc1ccc(C(=O)NC2CCC(NS(=O)(=O)C(C)(C)C)CC2)cc1 (centres unmarked) [Compound I-32] | ≥ 100 µM | ≥ 100 µM | – | – |
| CC(C)(C)S(=O)(=O)NC1CCC(C(=O)Nc2ccc(N3CCOCC3)cc2)CC1 (centres unmarked) [Compound I-41] | ≥ 100 µM | ≥ 100 µM | 0.0053 µM | 0.0382 µM |
| CC(C)(C)S(=O)(=O)NC1CCC(C(=O)Nc2ccc(N3CCCCC3)cc2)CC1 (centres unmarked) [Compound I-45] | ≥ 100 µM | ≥ 100 µM | 0.0012 µM | 0.0279 µM |
| CCn1c2ccccc2c2cc(NC(=O)C3CCC(NS(=O)(=O)C(C)(C)C)CC3)ccc21 (centres unmarked) [Compound I-46] | ≥ 100 µM | ≥ 100 µM | 0.0008 µM | 0.0105 µM |
| CC(C)(C)S(=O)(=O)NC1CCC(C(=O)Nc2ccc(I)cc2)CC1 (centres unmarked) [Compound I-47] | ≥ 100 µM | ≥ 100 µM | 0.0006 µM | 0.0149 µM |
| CC(C)(C)S(=O)(=O)NC1CCC(C(=O)Nc2ccc(F)cc2)CC1 (centres unmarked) [Compound I-48] | ≥ 100 µM | ≥ 100 µM | – | – |
| CC(C)(C)S(=O)(=O)NC1CCC(C(=O)Nc2ccc(N3CCCC3)cc2)CC1 (centres unmarked) [Compound I-49] | ≥ 100 µM | ≥ 100 µM | 0.0004 µM | 0.0081 µM |
| CC(C)(C)S(=O)(=O)NC1CCC(C(=O)Nc2ccc(N3CC=CCC3)cc2)CC1 (centres unmarked) [Compound I-59] | ≥ 100 µM | ≥ 100 µM | 0.0008 µM | 0.035 µM |
| CC(C)(C)S(=O)(=O)NC1CCC(C(=O)Nc2ccc(-n3cccc3)cc2)CC1 (centres unmarked) [Compound I-61] | ≥ 100 µM | ≥ 100 µM | 0.00026 µM | 0.0053 µM |
| CC(C)(C)S(=O)(=O)NC1CCC(C(=O)Nc2ccc(Br)cc2)CC1 (centres unmarked) [Compound I-63] | ≥ 100 µM | ≥ 100 µM | 0.0013 µM | 0.05 µM |
| CC(C)(C)S(=O)(=O)NC1CCC(C(=O)Nc2ccc3c(c2)OCO3)CC1 (centres unmarked) [Compound I-64] | ≥ 100 µM | ≥ 100 µM | 0.0022 µM | 0.08 µM |
| Cc1cc(=O)oc2cc(NC(=O)C3CCC(NS(=O)(=O)C(C)(C)C)CC3)ccc12 (centres unmarked) [Compound I-66] | ≥ 100 µM | ≥ 100 µM | 0.0015 µM | 0.03 µM |
| CN(C)c1cccc(NC(=O)C2CCC(NS(=O)(=O)C(C)(C)C)CC2)c1 (centres unmarked) [Compound I-69] | ≥ 100 µM | ≥ 100 µM | 0.0038 µM | 0.013 µM |
| C[C@@H]1CN(c2ccc(NC(=O)[C@H]3CC[C@H](NS(=O)(=O)C(C)(C)C)CC3)cc2)C[C@H](C)O1 [Compound I-72] | ≥ 100 µM | ≥ 100 µM | 0.0023 µM | 0.0021 µM |
| CC(C)(C)S(=O)(=O)NC1CCC(C(=O)NCCSc2cc(C(F)(F)F)nc3ccccc23)CC1 (centres unmarked) [Compound I-152] | ≥ 100 µM | ≥ 100 µM | 0.00088 µM | 0.046 µM |
| CC(C)(C)S(=O)(=O)NC1CCC(C(=O)NCc2cccc3ccccc23)CC1 (centres unmarked) [Compound I-154] | ≥ 100 µM | ≥ 100 µM | 0.0011 µM | 0.011 µM |
| CC(C)(C)S(=O)(=O)NC1CCC(C(=O)Nc2ccc3c(c2)CCC3)CC1 (centres unmarked) [Compound I-204] | ≥ 100 µM | ≥ 100 µM | 0.001 µM | 0.0063 µM |
| CC(C)NC(=O)c1cccc(NC(=O)C2CCC(NS(=O)(=O)C(C)(C)C)CC2)c1 (centres unmarked) [Compound I-205] | ≥ 100 µM | ≥ 100 µM | 0.0029 µM | 0.017 µM |
| CC(C)(C)S(=O)(=O)NC1CCC(C(=O)Nc2ccc(C(F)(F)F)cc2)CC1 (centres unmarked) [Compound I-212] | ≥ 100 µM | ≥ 100 µM | 0.00067 µM | 0.0075 µM |
| CC(C)S(=O)(=O)NCCCCC(=O)Nc1ccc(N2C[C@@H](C)O[C@@H](C)C2)cc1 [Ia-3] | ≥ 100 µM | ≥ 100 µM | 0.0092 µM | 0.15 µM |
| C[C@@H]1CN(c2ccc(NC(=O)CCCCNS(=O)(=O)C(C)(C)C)cc2)C[C@H](C)O1 [Ia-5] | ≥ 100 µM | ≥ 100 µM | 0.0016 µM | 0.043 µM |
| CC(C)S(=O)(=O)NC1CCC(C(=O)Nc2ccc(N3C[C@@H](C)O[C@@H](C)C3)cc2)CC1 (some centres unmarked) [Ia-6] | ≥ 100 µM | ≥ 100 µM | 0.0024 µM | 0.023 µM |
| CCC(C)c1ccc(NC(=O)C2CCC(NS(=O)(=O)C(C)(C)C)CC2)cc1 (centres unmarked) [Ia-12] | ≥ 100 µM | ≥ 100 µM | 0.00094 µM | 0.0055 µM |
| COc1ccc(NC(=O)C2CCC(NS(=O)(=O)C(C)(C)C)CC2)cc1 (centres unmarked) [Ia-16] | ≥ 100 µM | ≥ 100 µM | 0.0001 µM | – |
| CC(C)(C)S(=O)(=O)NC1CCC(C(=O)Nc2ccc(OC(F)(F)F)cc2)CC1 (centres unmarked) [Ia-17] | ≥ 100 µM | ≥ 100 µM | 0.0001 µM | 0.0019 µM |
| CC(C)(C)S(=O)(=O)NC1CCC(C(=O)Nc2cccc(F)c2)CC1 (centres unmarked) [Ia-20] | ≥ 100 µM | ≥ 100 µM | 0.0049 µM | 0.1 µM |
